This is an account of results in patent US12383578B2, “Carbazate-activated polyvinyl alcohol (PVAC) as a polymer-based antitumoral agent” (CREMED AB (PUBL), priority 2019, dated 2025).

The test system of one data set is GIST-T1 cells. Put plainly: Cell viability assay (CellTiter-Glo, ATP-based). Also on record: species or system human. The following applies: biologically relevant concentrations. How it is done:
0.25×10^4-1×10^4 GIST-T1 cells were seeded into each well in a 96-well plate. PVAC, EC, and PVA were added into each well or vehicle (deionized water) with subsequent incubation for 24 or 48 hours. CellTiter-Glo assay (Promega, MI, USA) is an ATP-based luminometric method that was performed according to protocol. In brief, cells were removed from incubator to allow adjust to room temperature after which 100 μL of room temperature CellTiter-Glo was added to each well. The plates were put on a shaker for 5-10 min. Cells rested for 5-10 min before measurement on an EnVision 2103 Multilabel Reader (Perkin Elmer, MA, USA).

A further data set concerns MDA-MB-231 tumor cells. The following applies: mouse, in vivo.

Experimental for MDA-MB-231 tumor cells: Following injection of MDA-MB-231 cells into athymic nude mice the animals were monitored twice weekly recording weight, general health and tumor size. When the average tumor size was approximately 100 μL the animals were stratified into three groups of 12 mice per group based on tumor size. All three groups were subjected to 28 days of twice-weekly intra/peri tumoral injections at a volume of 100 μL per injection. One group served as a control group and received NaCl (vehicle) injections. The remaining two groups received different doses of PVAC, as described above. The animals were euthanized on Day 29 and the tumors were excised, weighed, and divided into two parts handled as described above.

On to `CCOC(=O)NN` [EC, ethyl carbazate], for which the Cellular viability result in the data set on GIST-T1 cells is “did not reduce cellular viability”.
“Poly[1-hydroxyethylene)-ran-(1-hydrazinecarboxylatoethylene)] [PVAC]”: the “Animals euthanized due to infections” value in the data set with MDA-MB-231 tumor cells is listed as “four”.
